# Assays:
# Format in all cases: in vivo
# Botrytis cinerea = test: Test F: tomato botrytis, preventive spray on tomato seedlings, visual disease rating; conditions: for pest or weed control at 40 ppm: Botrytis cinerea, 120 h
# Text: (§1) General protocol for preparing test suspensions for Tests A-H: The test compounds were first dissolved in acetone in an amount equal to 3% of the final volume and then suspended at the desired concentration (in ppm) in acetone and purified water (50/50 mix) containing 250 ppm of the surfactant Trem® 014 (polyhydric alcohol esters). The resulting test suspensions were then used in tests A-H. Spraying a 200 ppm test suspension to the point of run-off on the test plants was the equivalent of a rate of 500 g/ha.
# The test suspension was sprayed to the point of run-off on tomato seedlings. The following day the seedlings were inoculated with a spore suspension of Botrytis cinerea (the causal agent of tomato botrytis) and incubated in saturated atmosphere at 20° C. for 48 h, and then moved to a growth chamber at 24° C. for 3 additional days, after which time disease ratings were visually made.
# (§2) Results for Tests A-H are given in Table A. In the table, a rating of 100 indicates 100% disease control and a rating of 0 indicates no disease control (relative to the controls). A dash (-) indicates no test results. All results are for compounds tested at 200 ppm except where the compound number is followed by “*” which indicates the compound was tested at 40 ppm.
# Septoria nodorum = test: Test D: wheat glume blotch, preventive spray on wheat seedlings, visual disease rating; conditions: for pest or weed control at 40 ppm: Parastagonospora nodorum, 216 h
# Text: as §1
# (§3) The test suspension was sprayed to the point of run-off on wheat seedlings. The following day the seedlings were inoculated with a spore suspension of Septoria nodorum (the causal agent of wheat glume blotch) and incubated in a saturated atmosphere at 20° C. for 48 h, and then moved to a growth chamber at 20° C. for 7 days, after which time disease ratings were visually made.
# as §2
# Alternaria solani = test: Test E: tomato early blight, preventive spray on tomato seedlings, visual disease rating; conditions: for pest or weed control at 40 ppm: Alternaria solani, 168 h
# Text: as §1
# The test suspension was sprayed to the point of run-off on tomato seedlings. The following day the seedlings were inoculated with a spore suspension of Alternaria solani (the causal agent of tomato early blight) and incubated in a saturated atmosphere at 27° C. for 48 h, and then moved to a growth chamber at 20° C. for 5 days, after which time disease ratings were visually made.
# as §2
# [1] = test system: Erysiphe graminis f. sp. tritici; test: Test A: wheat powdery mildew, preventive spray on wheat seedlings, visual disease rating; conditions: for pest or weed control at 40 ppm: Blumeria graminis, 192 h
# Text: as §1
# The test suspension was sprayed to the point of run-off on wheat seedlings. The following day the seedlings were inoculated with a spore dust of Erysiphe graminis f. sp. tritici (the causal agent of wheat powdery mildew) and incubated in a growth chamber at 20° C. for 8 days, after which time disease ratings were visually made.
# as §2
# [2] = test system: Puccinia recondite f. sp. tritici; test: Test B: wheat leaf rust, preventive spray on wheat seedlings, visual disease rating; conditions: for pest or weed control at 40 ppm: 192 h
# Text: as §1
# as §3, with “Puccinia recondite f. sp. tritici” for “Septoria nodorum”, “leaf rust)” for “glume blotch)”, “24” for “48”
# as §2
# Septoria tritici = test: Test C: wheat leaf blotch, preventive spray on wheat seedlings, visual disease rating; conditions: for pest or weed control at 40 ppm: Zymoseptoria tritici, 504 h
# Text: as §1
# as §3, with “tritici” for “nodorum”, “leaf” for “glume”, “and” for “and then”, “19 additional” for “7”
# as §2
# [3] = 40 ppm (compound number followed by *)
# [4] = 200 ppm, 100 = 100% disease control, 0 = no control
Compound,Test F rating (% disease control) (Botrytis cinerea; [3]) [%],Test D rating (% disease control) (Septoria nodorum; [3]) [%],Test E rating (% disease control) (Alternaria solani; [3]) [%],"Test A rating (% disease control) [1, 3] [%]","Test B rating (% disease control) [2, 3] [%]",Test C rating (% disease control) (Septoria tritici; [3]) [%],Test F rating (% disease control) (Botrytis cinerea; [4]) [%],Test D rating (% disease control) (Septoria nodorum; [4]) [%],Test E rating (% disease control) (Alternaria solani; [4]) [%],"Test A rating (% disease control) [1, 4] [%]","Test B rating (% disease control) [2, 4] [%]",Test C rating (% disease control) (Septoria tritici; [4]) [%],also measured
"COc1cc(OC)cc(-c2c(C(C)=NO)cnc(C)c2-c2c(F)cc(F)cc2F)c1 (single isomer, unassigned) [Compound 117]",99,82,99,93,100,99,–,–,–,–,–,–,–
COc1cc(OC)cc(-c2c(-c3ccc(F)cc3)cnc(C)c2-c2c(F)cc(F)cc2F)c1 [Compound 93],98,0,21,96,91,93,–,–,–,–,–,–,–
C=C(C)c1cnc(C)c(-c2ccc(OC)cc2)c1-c1cc(OC)cc(OC)c1 [Compound 64],–,–,–,–,–,–,99,90,100,85,99,95,–
Cc1nc(C#N)c(C)c(-c2ccc(Cl)cc2)c1-c1c(F)cccc1F [Compound 143],28,0,97,99,97,100,–,–,–,–,–,–,–
CCOC(=O)c1cnc(C)c(-c2c(F)cc(OC)cc2F)c1-c1cc(OC)cc(OC)c1 [Compound 70],–,–,–,–,–,–,97,0,79,94,95,93,–
CCC(O)c1cnc(C)c(-c2c(F)ccc(OC)c2F)c1-c1cc(OC)cc(OC)c1 (stereo not drawn) [Compound 115],98,0,99,93,96,98,–,–,–,–,–,–,–
COc1cc(OC)cc(-c2c(Cn3cccn3)cnc(C)c2-c2c(F)cc(F)cc2F)c1 [Compound 97],–,–,–,–,–,–,99,100,100,100,100,95,–
COc1cc(OC)cc(-c2c(C)cnc(C)c2-c2c(F)cc(F)cc2F)c1 [Compound 129],99,60,66,99,100,99,–,–,–,–,–,–,–
"COc1cc(OC)cc(-c2c(Br)cnc(C)c2-c2c(F)cc(F)cc2F)c1 [Compound 122, 5-bromo-4-(3,5-dimethoxyphenyl)-2-methyl-3-(2,4,6-trifluorophenyl)pyridine]",–,–,–,–,–,–,–,–,–,–,–,–,"pest or weed control at 40 ppm (Botrytis cinerea; [3]): 100%; pest or weed control at 40 ppm (Septoria nodorum; [3]): 0%; pest or weed control at 40 ppm (Alternaria solani; [3]): 0%; pest or weed control at 40 ppm [1, 3]: 98%; pest or weed control at 40 ppm [2, 3]: 99%; pest or weed control at 40 ppm (Septoria tritici; [3]): 99%"
COc1cc(OC)cc(-c2c(C3CCSCC3)cnc(C)c2-c2ccc(F)cc2)c1 [Compound 84],49,0,0,96,98,96,–,–,–,–,–,–,–
COc1cc(OC)cc(-c2c(-c3cccnc3)cnc(C)c2-c2c(F)cc(F)cc2F)c1 [Compound 128],99,90,94,81,99,100,–,–,–,–,–,–,–
COc1cc(OC)cc(-c2c(C(C)CO)cnc(C)c2-c2c(F)cccc2F)c1 (stereo not drawn) [Compound 90],71,0,98,0,74,90,–,–,–,–,–,–,–
COc1cc(OC)cc(-c2c(CN3CCCCC3)cnc(C)c2-c2c(F)cc(F)cc2F)c1 [Compound 111],–,–,–,–,–,–,99,0,0,93,97,91,–
COc1cc(OC)cc(-c2c(C(C)=O)cnc(C)c2-c2c(F)cc(OC)cc2F)c1 [Compound 71],–,–,–,–,–,–,99,81,100,98,100,95,–
COc1cc(OC)cc(-c2c(C(N)=O)cnc(C)c2-c2c(F)cc(F)cc2F)c1 [Compound 120],79,0,47,0,91,87,–,–,–,–,–,–,–
C=C(C)c1cnc(C)c(-c2c(F)cc(OC)cc2F)c1-c1cc(OC)cc(OC)c1 [Compound 74],–,–,–,–,–,–,98,100,100,100,100,98,–
COc1cc(OC)c(Cl)c(-c2c(CCl)cnc(C)c2-c2c(F)cc(F)cc2F)c1 [Compound 134],100,92,96,99,100,99,–,–,–,–,–,–,–
COc1ccc(-c2c(C)ncc(C(C)CO)c2-c2cc(OC)cc(OC)c2)cc1 (stereo not drawn) [Compound 82],–,–,–,–,–,–,98,69,98,97,98,95,–
"COc1cc(OC)cc(-c2c(-c3ccccc3)cnc(C)c2-c2c(F)cc(F)cc2F)c1 [Compound 121, 4-(3,5-dimethoxyphenyl)-2-methyl-5-phenyl-3-(2,4,6-trifluorophenyl)pyridine]",–,–,–,–,–,–,–,–,–,–,–,–,"pest or weed control at 40 ppm (Botrytis cinerea; [3]): 100%; pest or weed control at 40 ppm (Septoria nodorum; [3]): 94%; pest or weed control at 40 ppm (Alternaria solani; [3]): 99%; pest or weed control at 40 ppm [1, 3]: 99%; pest or weed control at 40 ppm [2, 3]: 100%; pest or weed control at 40 ppm (Septoria tritici; [3]): 99%"
COc1cc(OC)c(Cl)c(-c2c(C(C)(C)O)cnc(C)c2-c2c(F)cc(F)cc2F)c1 [Compound 119],100,98,100,99,100,98,–,–,–,–,–,–,–
COc1cc(OC)cc(-c2c(-c3ccccc3)cnc(C)c2-c2c(F)cccc2F)c1 [Compound 87],72,0,0,98,96,95,–,–,–,–,–,–,–
COc1ccc(-c2c(C)ncc(C(C)C)c2-c2cc(OC)cc(OC)c2)cc1 [Compound 65],–,–,–,–,–,–,99,0,100,80,98,96,–
